This is an account of results in patent publication US10857138B2, “Pharmaceutical compositions comprising antibacterial agents” (WOCKHARDT LIMITED, priority 2014, dated 2020).

Molecules are shown by their SMILES.

In test [1] the test system is Klebsiella pneumoniae NCTC 13443 strain producing NDM-1, SHV and TEM beta-lactamase enzymes. Nature of the test: Time kill study against K. pneumoniae NCTC 13443. Particulars: for Bacterial count (Log10CFU/ml) 2 hours / Bacterial count (Log10CFU/ml) 4 hours / Bacterial count (Log10CFU/ml) 6 hours / Bacterial count (Log10CFU/ml) 8 hours: each agent at 4 mcg/ml, alone or in combination; for Effect on bacterial count when used alone: used alone at 4 μg/ml, throughout the duration of the study. Format: cell-based. On the procedure:
(§1) In a typical time kill study, the freshly grown cultures were diluted to the required cell density (initial starting inoculum) in Cation adjusted Muller Hinton broth medium (BD, USA). The antibacterial agents (either alone or in combination) at the required concentrations were added into the culture-containing medium. The samples were incubated under shaking condition (120 rpm) at 37° C. Enumeration of viable bacterial count was done every 2 hour by diluting in normal saline and plating on to the Tryptic Soya Agar plates (BD, USA). The plates were incubated for 24 hours to arrive at the viable bacterial count. […] In general, the decrease of 1 Log CFU/ml, corresponds to 90% killing of bacteria. Similarly, 2 Log CFU/ml reductions indicates to 99% killing of bacteria and 3 Log CFU/ml reductions is equal to 99.9% killing of bacteria.
(§2) The assay without any antibacterial agent was taken as control.

Test [2] deals with Klebsiella pneumoniae B 88 strain producing NDM-1, SHV, TEM and CTXM beta-lactamase enzymes. Nature of the test: Time kill study against K. pneumoniae B 88. It counts as cell-based. On the set-up: Effect on bacterial count when used alone: dose or concentration left out as unconfirmed. The following applies: for Bacterial count (Log10CFU/ml) 2 hours / Bacterial count (Log10CFU/ml) 4 hours / Bacterial count (Log10CFU/ml) 6 hours / Bacterial count (Log10CFU/ml) 8 hours: each agent at 4 mcg/ml, alone or in combination; for Effect on bacterial count when used alone: used alone at 4 mcg/ml, throughout the duration of the study. On the procedure:
as §1, §2

Regarding `C[C@H]1[C@H](NC(=O)/C(=N\OC(C)(C)C(=O)O)c2csc(N)n2)C(=O)N1S(=O)(=O)O` [Aztreonam, reference compound], in test [1], the “Bacterial count (Log10CFU/ml) 2 hours” value is recorded as 8.38 Log10CFU/ml, the “Bacterial count (Log10CFU/ml) 4 hours” value is on record as 8.65 Log10CFU/ml, the “Bacterial count (Log10CFU/ml) 6 hours” value is 9.02 Log10CFU/ml and the “Bacterial count (Log10CFU/ml) 8 hours” value is 9.55 Log10CFU/ml. For the same compound, the “Effect on bacterial count when used alone” value (shortened to “Effect on bacterial count”) in test [1] is reported as “not effective to decrease the bacterial count”. In test [2], the “Bacterial count (Log10CFU/ml) 2 hours” value turned out to be 8.16 Log10CFU/ml, the “Bacterial count (Log10CFU/ml) 4 hours” value amounted to 8.7 Log10CFU/ml, the “Bacterial count (Log10CFU/ml) 6 hours” value is given as 8.88 Log10CFU/ml and the “Bacterial count (Log10CFU/ml) 8 hours” value is 9.04 Log10CFU/ml. The “Effect on bacterial count” value in test [2] is on record as “not effective to decrease the bacterial count”.

Regarding `N#C[C@@H]1CC[C@@H]2CN1C(=O)N2OS(=O)(=O)[O-].[Na+]` [Compound A, Sodium salt of trans-7-oxo-6-sulphooxy-1,6-diazabicyclo[3.2.1]-octane-2-carbonitrile], in test [1], the “Bacterial count (Log10CFU/ml) 2 hours” value is recorded as 8.3 Log10CFU/ml, the “Bacterial count (Log10CFU/ml) 4 hours” value amounted to 8.5 Log10CFU/ml, the “Bacterial count (Log10CFU/ml) 6 hours” value is 8.8 Log10CFU/ml and the “Bacterial count (Log10CFU/ml) 8 hours” value is listed as 9 Log10CFU/ml. In test [1], the “Effect on bacterial count” value was “not effective to decrease the bacterial count”. Also, in test [2], the “Bacterial count (Log10CFU/ml) 2 hours” value was 8 Log10CFU/ml, the “Bacterial count (Log10CFU/ml) 4 hours” value is 8.2 Log10CFU/ml, the “Bacterial count (Log10CFU/ml) 6 hours” value worked out at 8.5 Log10CFU/ml and the “Bacterial count (Log10CFU/ml) 8 hours” value is recorded as 8.8 Log10CFU/ml. In addition, the “Effect on bacterial count” value in test [2] is “not effective to decrease the bacterial count”.

Regarding `NC(=O)c1nnc([C@@H]2CC[C@@H]3CN2C(=O)N3OS(=O)(=O)O)o1` [Compound B], in test [1], the “Bacterial count (Log10CFU/ml) 2 hours” value is on record as 8.3 Log10CFU/ml, the “Bacterial count (Log10CFU/ml) 4 hours” value was 8.5 Log10CFU/ml, the “Bacterial count (Log10CFU/ml) 6 hours” value was 8.8 Log10CFU/ml and the “Bacterial count (Log10CFU/ml) 8 hours” value is reported as 8.9 Log10CFU/ml. Further, in test [1], the “Effect on bacterial count” value is “not effective to decrease the bacterial count”. In test [2], the “Bacterial count (Log10CFU/ml) 2 hours” value worked out at 7.98 Log10CFU/ml, the “Bacterial count (Log10CFU/ml) 4 hours” value was 8.2 Log10CFU/ml, the “Bacterial count (Log10CFU/ml) 6 hours” value worked out at 8.50 Log10CFU/ml and the “Bacterial count (Log10CFU/ml) 8 hours” value turned out to be 8.9 Log10CFU/ml. Further, the “Effect on bacterial count” value in test [2] is on record as “not effective to decrease the bacterial count”.

`O=C1N2C[C@@H](CC[C@H]2c2nnc(C3CCNCC3)o2)N1OS(=O)(=O)O` [Compound C]: in test [1], the “Bacterial count (Log10CFU/ml) 2 hours” value is reported as 8.2 Log10CFU/ml, the “Bacterial count (Log10CFU/ml) 4 hours” value is 8.9 Log10CFU/ml, the “Bacterial count (Log10CFU/ml) 6 hours” value is given as 9 Log10CFU/ml and the “Bacterial count (Log10CFU/ml) 8 hours” value was determined as 9.5 Log10CFU/ml. Also, in test [1], the “Effect on bacterial count” value is given as “not effective to decrease the bacterial count”. In test [2], the “Bacterial count (Log10CFU/ml) 2 hours” value turned out to be 8.1 Log10CFU/ml, the “Bacterial count (Log10CFU/ml) 4 hours” value is 8.15 Log10CFU/ml, the “Bacterial count (Log10CFU/ml) 6 hours” value is 8.65 Log10CFU/ml and the “Bacterial count (Log10CFU/ml) 8 hours” value turned out to be 8.9 Log10CFU/ml. Also, the “Effect on bacterial count” value in test [2] is given as “not effective to decrease the bacterial count”.

For the compound `O=C1N2C[C@@H](CC[C@H]2c2nnc(CC3CNC3)o2)N1OS(=O)(=O)O` [Compound D], in test [1], the “Bacterial count (Log10CFU/ml) 2 hours” value came out at 8.3 Log10CFU/ml, the “Bacterial count (Log10CFU/ml) 4 hours” value is 8.55 Log10CFU/ml, the “Bacterial count (Log10CFU/ml) 6 hours” value was determined as 8.95 Log10CFU/ml and the “Bacterial count (Log10CFU/ml) 8 hours” value stood at 9.2 Log10CFU/ml. Further, the “Effect on bacterial count” value in test [1] is “not effective to decrease the bacterial count”. Moreover, in test [2], the “Bacterial count (Log10CFU/ml) 2 hours” value came to 8.05 Log10CFU/ml, the “Bacterial count (Log10CFU/ml) 4 hours” value came to 8.3 Log10CFU/ml, the “Bacterial count (Log10CFU/ml) 6 hours” value turned out to be 8.7 Log10CFU/ml and the “Bacterial count (Log10CFU/ml) 8 hours” value turned out to be 8.8 Log10CFU/ml. The “Effect on bacterial count” value in test [2] is on record as “not effective to decrease the bacterial count”.

With `O=C(NNC(=O)[C@@H]1CC[C@@H]2CN1C(=O)N2OS(=O)(=O)O)[C@@H]1CCCNC1` [Compound E, (2S,5R)-7-Oxo-6-sulphooxy-2-[N′—((R)-piperidine-3-carbonyl)-hydrazinocarbonyl]-1,6-diaza-bicyclo[3.2.1]octane], in test [1], the “Bacterial count (Log10CFU/ml) 2 hours” value amounted to 8.35 Log10CFU/ml, the “Bacterial count (Log10CFU/ml) 4 hours” value is 8.6 Log10CFU/ml, the “Bacterial count (Log10CFU/ml) 6 hours” value was 8.8 Log10CFU/ml and the “Bacterial count (Log10CFU/ml) 8 hours” value is given as 8.9 Log10CFU/ml. Also, the “Effect on bacterial count” value in test [1] is “not effective to decrease the bacterial count”. In test [2], the “Bacterial count (Log10CFU/ml) 2 hours” value is recorded as 7.9 Log10CFU/ml, the “Bacterial count (Log10CFU/ml) 4 hours” value is reported as 8.3 Log10CFU/ml, the “Bacterial count (Log10CFU/ml) 6 hours” value was found to be 8.8 Log10CFU/ml and the “Bacterial count (Log10CFU/ml) 8 hours” value is listed as 8.9 Log10CFU/ml. The “Effect on bacterial count” value in test [2] is “not effective to decrease the bacterial count”.

As to `O=C(NOC[C@@H]1CCCN1)[C@@H]1CC[C@@H]2CN1C(=O)N2OS(=O)(=O)O` [Compound F, (2S,5R)-7-Oxo-N-[(2S)-pyrrolidin-2-ylmethoxy]-6-(sulfooxy)-1,6-diaza bicyclo[3.2.1]octane-2-carboxamide], in test [1], the “Bacterial count (Log10CFU/ml) 2 hours” value was 8.4 Log10CFU/ml, the “Bacterial count (Log10CFU/ml) 4 hours” value was 8.7 Log10CFU/ml, the “Bacterial count (Log10CFU/ml) 6 hours” value was determined as 8.9 Log10CFU/ml and the “Bacterial count (Log10CFU/ml) 8 hours” value was 9.1 Log10CFU/ml. The “Effect on bacterial count” value in test [1] is listed as “not effective to decrease the bacterial count”. Further, in test [2], the “Bacterial count (Log10CFU/ml) 2 hours” value came to 8 Log10CFU/ml, the “Bacterial count (Log10CFU/ml) 4 hours” value is on record as 8.2 Log10CFU/ml, the “Bacterial count (Log10CFU/ml) 6 hours” value worked out at 8.35 Log10CFU/ml and the “Bacterial count (Log10CFU/ml) 8 hours” value stood at 8.7 Log10CFU/ml. Moreover, in test [2], the “Effect on bacterial count” value is “not effective to decrease the bacterial count”.

On to `O=C(NNC(=O)[C@@H]1CC[C@@H]2CN1C(=O)N2OS(=O)(=O)O)[C@@H]1CCNC1` [Compound G, (2S,5R)-7-Oxo-6-sulphooxy-2-[N′—((R)-pyrrolidine-3-carbonyl)-hydrazinocarbonyl]-1,6-diaza-bicyclo[3.2.1]octane], for which, in test [1], the “Bacterial count (Log10CFU/ml) 2 hours” value amounted to 8.36 Log10CFU/ml, the “Bacterial count (Log10CFU/ml) 4 hours” value is listed as 8.78 Log10CFU/ml, the “Bacterial count (Log10CFU/ml) 6 hours” value came out at 8.9 Log10CFU/ml and the “Bacterial count (Log10CFU/ml) 8 hours” value was found to be 9.2 Log10CFU/ml. For the same compound, the “Effect on bacterial count” value in test [1] is “not effective to decrease the bacterial count”. Besides, in test [2], the “Bacterial count (Log10CFU/ml) 2 hours” value turned out to be 7.95 Log10CFU/ml, the “Bacterial count (Log10CFU/ml) 4 hours” value was determined as 8.05 Log10CFU/ml, the “Bacterial count (Log10CFU/ml) 6 hours” value was found to be 8.7 Log10CFU/ml and the “Bacterial count (Log10CFU/ml) 8 hours” value is recorded as 8.98 Log10CFU/ml. Also, the “Effect on bacterial count” value in test [2] is recorded as “not effective to decrease the bacterial count”.

For `O=C(NOC[C@@H]1CCCCN1)[C@@H]1CC[C@@H]2CN1C(=O)N2OS(=O)(=O)O` [Compound H, (2S,5R)-7-Oxo-N-[(2S)-piperidine-2-ylmethyloxy]-6-(sulfooxy)-1,6-diazabicyclo[3.2.1]octane-2-carboxamide], in test [1], the “Bacterial count (Log10CFU/ml) 2 hours” value was found to be 8.35 Log10CFU/ml, the “Bacterial count (Log10CFU/ml) 4 hours” value worked out at 8.48 Log10CFU/ml, the “Bacterial count (Log10CFU/ml) 6 hours” value was 8.9 Log10CFU/ml and the “Bacterial count (Log10CFU/ml) 8 hours” value turned out to be 9.1 Log10CFU/ml. The “Effect on bacterial count” value in test [1] is given as “not effective to decrease the bacterial count”. Also, in test [2], the “Bacterial count (Log10CFU/ml) 2 hours” value is 8.15 Log10CFU/ml, the “Bacterial count (Log10CFU/ml) 4 hours” value was 8.3 Log10CFU/ml, the “Bacterial count (Log10CFU/ml) 6 hours” value was 8.65 Log10CFU/ml and the “Bacterial count (Log10CFU/ml) 8 hours” value is reported as 8.98 Log10CFU/ml. Moreover, the “Effect on bacterial count” value in test [2] is “not effective to decrease the bacterial count”.

Turning to `C[C@H](N)c1nnc([C@@H]2CC[C@@H]3CN2C(=O)N3OS(=O)(=O)O)o1` [Compound I, trans-sulphuric acid mono-[2-(5-((S)-1-amino-ethyl)-[1,3,4]-oxadiazol-2-yl)-7-oxo-1,6-diazabicyclo[3.2.1]-octan-6-yl] ester], in test [1], the “Bacterial count (Log10CFU/ml) 2 hours” value was 8.36 Log10CFU/ml, the “Bacterial count (Log10CFU/ml) 4 hours” value turned out to be 8.79 Log10CFU/ml, the “Bacterial count (Log10CFU/ml) 6 hours” value is 8.9 Log10CFU/ml and the “Bacterial count (Log10CFU/ml) 8 hours” value worked out at 9.1 Log10CFU/ml. For the same compound, in test [1], the “Effect on bacterial count” value is reported as “not effective to decrease the bacterial count”. In test [2], the “Bacterial count (Log10CFU/ml) 2 hours” value came out at 8.36 Log10CFU/ml, the “Bacterial count (Log10CFU/ml) 4 hours” value was found to be 8.79 Log10CFU/ml, the “Bacterial count (Log10CFU/ml) 6 hours” value is given as 8.9 Log10CFU/ml and the “Bacterial count (Log10CFU/ml) 8 hours” value is recorded as 9.1 Log10CFU/ml. Also, the “Effect on bacterial count” value in test [2] is “not effective to decrease the bacterial count”.
